Data published in patent US12247064B2, “Modified ligand-gated ion channels and methods of use” (Howard Hughes Medical Institute, priority 2017, dated 2025).
Where two headings read alike, the source gives them in different places.

How the values were obtained:
α7-5HT3 [1] = molecular target: T1, α7-5HT3 (Homo sapiens, UniProt P36544, M226I/T225I)
α7-GlyR [2] = molecular target: T2, α7-GlyR (Homo sapiens, UniProt P36544)
α7GABAc W298A (GABAA-ρ) = experiment: Agonist potency at α7GABAc channel with W298A (Table 7); assay type: cell-based, human; conditions: a7GABAc Q79G L141F W298A
[3] = system: α7GlyR G175K / A298G mutant chimeric channels; assay type: cell-based, human
α7GlyR P216I = molecular target: T3, α7GlyR P216I (Homo sapiens, UniProt P36544, P216I); experiment: Agonist potency at chimeric channel; assay type: cell-based
T3 construct: expressed in transfected cells
T3 sequence (P36544 with tags, fused parts or gaps P216I): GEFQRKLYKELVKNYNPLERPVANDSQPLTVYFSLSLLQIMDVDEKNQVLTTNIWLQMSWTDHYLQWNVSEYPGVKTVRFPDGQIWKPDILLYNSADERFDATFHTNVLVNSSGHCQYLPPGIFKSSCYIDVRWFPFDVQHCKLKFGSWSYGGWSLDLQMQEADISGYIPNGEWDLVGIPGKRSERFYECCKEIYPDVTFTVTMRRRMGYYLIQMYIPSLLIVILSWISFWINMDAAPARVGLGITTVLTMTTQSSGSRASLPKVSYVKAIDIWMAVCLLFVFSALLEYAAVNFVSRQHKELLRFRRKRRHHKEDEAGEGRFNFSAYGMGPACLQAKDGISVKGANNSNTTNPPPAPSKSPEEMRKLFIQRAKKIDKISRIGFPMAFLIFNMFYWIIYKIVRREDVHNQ

α7GlyR G175K = molecular target: T4, α7GlyR G175K (Homo sapiens, UniProt P36544, G175K); experiment: Agonist potency at chimeric channel; assay type: cell-based
T4 construct: expressed in transfected cells
T4 sequence (P36544 with tags, fused parts or gaps G175K): as the sequence (P36544 with tags, fused parts or gaps P216I) above, with G153K, I194P counted along it

[4] = system: cortical neurons expressing PSAM^4-5HT3 HC; experiment: Chemogenetic activation of cortical neurons expressing PSAM^4-5HT3 HC; assay type: cell-based, mouse
From the text: FIGS. 12A-12F show chemogenetic perturbation of cortical neuron activity. […] FIG. 12C) Cortical layer 2/3 neuron membrane properties were similar in PSAM^4-GlyR expressing neurons and intermingled untransfected control neurons. […] FIG. 12F) Cortical layer 2/3 neuron membrane properties are similar in PSAM^4-5HT3 HC expressing neurons and intermingled untransfected control neurons. Data are mean±SEM. Mann Whitney U-test, n.s. P>0.05, ***P<0.001.
Chemogenetic perturbation of cortical neuron activity was evaluated. […] Cortical layer 2/3 neuron membrane properties were similar in PSAM^4-GlyR expressing neurons and intermingled untransfected control neurons. […] Cortical layer 2/3 neuron membrane properties are similar in PSAM^4-5HT3 HC expressing neurons and intermingled untransfected control neurons. See, e.g., FIG. 12.

5HT3-R = molecular target: T5, 5HT3-R (Homo sapiens, UniProt P46098); experiment: Agonist potency at 5HT3-R; assay type: cell-based
T5 sequence (P46098 24-478): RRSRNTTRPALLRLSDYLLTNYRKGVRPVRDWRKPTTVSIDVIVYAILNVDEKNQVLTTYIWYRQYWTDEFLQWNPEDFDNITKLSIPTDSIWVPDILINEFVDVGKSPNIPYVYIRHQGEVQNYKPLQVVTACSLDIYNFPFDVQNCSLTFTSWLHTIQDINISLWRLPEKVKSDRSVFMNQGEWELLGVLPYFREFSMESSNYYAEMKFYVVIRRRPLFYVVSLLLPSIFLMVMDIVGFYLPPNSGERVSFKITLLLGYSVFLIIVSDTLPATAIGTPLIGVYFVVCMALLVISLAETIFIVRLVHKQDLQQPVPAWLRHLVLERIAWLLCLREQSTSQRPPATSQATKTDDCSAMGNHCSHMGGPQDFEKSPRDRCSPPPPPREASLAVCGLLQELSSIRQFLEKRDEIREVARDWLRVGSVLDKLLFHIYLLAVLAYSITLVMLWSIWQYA

[5] = system: mice expressing PSAM^4-GlyR unilaterally in SNr; experiment: Unilateral SNr silencing rotation assay; assay type: in vivo, mouse
α7^L131A-GlyR = molecular target: T6, α7^L131A-GlyR (Homo sapiens, UniProt P36544, L131A); assay type: cell-based; conditions: over α7-GlyR
T6 construct: expressed in transfected cells
T6 sequence (P36544 with tags, fused parts or gaps L131A limits assumed): as the sequence (P36544 with tags, fused parts or gaps P216I) above, with L109A, I194P counted along it

α7-5HT3 [6] = molecular target: T1, α7-5HT3; remark: listed apart in the source
α7-GlyR [7] = molecular target: T2, α7-GlyR; experiment: cell-based
α4β2 nAChR = α4β2 nAChR (Homo sapiens, UniProt P17787+P43681); experiment: Agonist potency at α4β2 nAChR
α4β2 nAChR, sequence (P43681 29-627 limits assumed): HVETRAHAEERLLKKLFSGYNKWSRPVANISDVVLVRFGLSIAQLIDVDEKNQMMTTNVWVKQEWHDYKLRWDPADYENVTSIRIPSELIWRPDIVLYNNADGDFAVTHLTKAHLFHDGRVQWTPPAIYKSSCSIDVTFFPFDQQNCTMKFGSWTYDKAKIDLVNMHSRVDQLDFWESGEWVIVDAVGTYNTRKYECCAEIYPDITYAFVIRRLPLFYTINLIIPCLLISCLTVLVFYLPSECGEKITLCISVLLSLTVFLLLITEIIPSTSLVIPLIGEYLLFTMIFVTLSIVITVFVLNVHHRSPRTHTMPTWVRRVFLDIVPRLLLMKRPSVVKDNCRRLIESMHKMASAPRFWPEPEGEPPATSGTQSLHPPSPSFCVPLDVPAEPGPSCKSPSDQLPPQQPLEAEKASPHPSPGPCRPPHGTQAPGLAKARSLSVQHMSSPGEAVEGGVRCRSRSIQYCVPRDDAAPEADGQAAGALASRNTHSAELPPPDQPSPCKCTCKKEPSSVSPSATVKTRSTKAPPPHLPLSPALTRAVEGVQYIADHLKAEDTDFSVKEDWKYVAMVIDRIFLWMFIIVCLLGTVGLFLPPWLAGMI
α4β2 nAChR, sequence (P17787 26-502): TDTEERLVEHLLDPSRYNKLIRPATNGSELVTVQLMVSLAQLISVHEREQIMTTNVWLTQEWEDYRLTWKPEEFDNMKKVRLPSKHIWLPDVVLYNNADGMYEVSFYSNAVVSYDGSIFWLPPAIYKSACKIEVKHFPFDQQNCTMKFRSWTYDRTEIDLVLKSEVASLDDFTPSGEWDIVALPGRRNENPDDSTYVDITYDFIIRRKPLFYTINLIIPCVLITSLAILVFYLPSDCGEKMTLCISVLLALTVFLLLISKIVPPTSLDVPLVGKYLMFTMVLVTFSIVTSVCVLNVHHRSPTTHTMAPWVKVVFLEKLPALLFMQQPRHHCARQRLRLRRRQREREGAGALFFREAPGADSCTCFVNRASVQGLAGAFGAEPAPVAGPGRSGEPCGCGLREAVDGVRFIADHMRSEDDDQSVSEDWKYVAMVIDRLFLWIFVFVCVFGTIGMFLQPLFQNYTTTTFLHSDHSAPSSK

[8] = read-out: α7-5HT3 EC50, HEK cells, Table 3
[9] = read-out: Agonist potency; α7GlyR Q79G A298G G175K Y115F
[10] = read-out: Agonist potency; α7GlyR Q79G A298G Y115F K395 K396A
[11] = read-out: Agonist potency; α7GlyR Q79G G175K A298G
[12] = read-out: Agonist potency; α7GlyR Q79G W77F A298G
[13] = read-out: Agonist potency; α7GlyR R27D E41R Q79G Y115F

T2 sequence (P36544 with tags, fused parts or gaps): as the sequence (P36544 with tags, fused parts or gaps P216I) above, with I194P counted along it
T1 sequence (P36544 with tags, fused parts or gaps T225I/M226I limits assumed): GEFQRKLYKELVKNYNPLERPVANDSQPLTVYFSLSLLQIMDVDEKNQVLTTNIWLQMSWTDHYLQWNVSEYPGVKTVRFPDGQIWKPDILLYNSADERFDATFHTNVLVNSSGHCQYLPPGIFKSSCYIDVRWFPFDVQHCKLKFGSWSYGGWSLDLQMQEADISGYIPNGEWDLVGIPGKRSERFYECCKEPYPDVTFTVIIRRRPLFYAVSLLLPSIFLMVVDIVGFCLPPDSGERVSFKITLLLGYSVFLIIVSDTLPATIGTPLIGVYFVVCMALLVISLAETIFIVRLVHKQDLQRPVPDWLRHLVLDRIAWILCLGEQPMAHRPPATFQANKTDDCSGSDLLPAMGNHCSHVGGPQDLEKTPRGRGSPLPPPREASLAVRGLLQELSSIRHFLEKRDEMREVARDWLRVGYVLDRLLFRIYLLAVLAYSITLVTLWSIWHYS

SMILES	EC50 (5HT3-R; 5HT3-R, Table 10)	EC50 (α7-5HT3 [6])	EC50 (α7-GlyR [7])	EC50 (α4β2 nAChR; […], α4β2 nAChR, Table 10)	other results
COc1ccc(OC)c(C(=O)NC2C3CCN(CC3)C2Cc2cccnc2)c1 (mixture of isomers) [compound 0434]	–	–	–	–	EC50 (α7-5HT3 [1]; [8]): > 10000 nM; EC50 (α7-GlyR [2]): > 10 µM
O=C(NC1C2CCN(CC2)C1Cc1cccnc1)c1ccc(C(F)(F)F)cc1 (mixture of isomers) [compound 0436]	–	–	–	–	EC50 (α7-5HT3 [1]; [8]): 840 nM; EC50 (α7-GlyR [2]): 0.31 µM
O=c1cccc2n1C[C@@H]1CNC[C@H]2C1 [Cytisine]	–	–	–	–	EC50 (α7GABAc W298A (GABAA-ρ)): 13.3 µM; EC50 [3, 9]: 4600 nM; EC50 ([3]; read-out: Agonist potency; α7GlyR Q79G A298G P216I): 5500 nM; EC50 [3, 10]: > 30000 nM; EC50 [3, 11]: 134 nM; EC50 [3, 12]: 14100 nM; EC50 [3, 13]: > 30000 nM
Clc1ccc(C2CC3CCC2N3)cn1 (centres unmarked) [Epibatidine]	–	–	–	–	EC50 (α7GABAc W298A (GABAA-ρ)): 0.42 µM; EC50 ([3]; α7GlyR Q79G A298G G175K Y115F; read-out: Agonist potency): 11 nM; EC50 ([3]; α7GlyR Q79G A298G P216I; read-out: Agonist potency): 50 nM; EC50 ([3]; α7GlyR Q79G A298G Y115F K395 K396A; read-out: Agonist potency): 150 nM; EC50 ([3]; α7GlyR Q79G G175K A298G; read-out: Agonist potency): 2.3 nM; EC50 ([3]; α7GlyR Q79G W77F A298G; read-out: Agonist potency): 370 nM; EC50 ([3]; α7GlyR R27D E41R Q79G Y115F; read-out: Agonist potency): 267 nM
CN1C2CCCC1CC(NC(=O)c1nn(C)c3ccccc13)C2 (centres unmarked) [Granisetron, reference compound]	–	–	–	–	activation of channel (α7-5HT3 [1]): does not activate
CN1CCCC1c1cccnc1 (centres unmarked) [Nicotine]	–	–	–	–	increased potency (α7GlyR P216I): > 4 fold; increased potency (α7GlyR G175K): 10 fold
c1cnc2cc3c(cc2n1)[C@@H]1CNC[C@H]3C1 [Varenicline]	1400 nM	–	–	–	membrane potential and firing [4]: depolarizes and elicits firing; rotation response ([5]; low doses, intraperitoneal, not in sham operated or EGFP-alone mice): elicit contraversive rotation; doses at which circling contralateral to the silenced SNr was seen ([5]; mice): above 0.1 mpk; improvement in potency over anti-nicotine activity ([5]; mice): 10 fold; tachyphylaxis of the chemogenetic response ([5]; two doses separated by 5 hours): no tachyphylaxis; EC50 (α7GABAc W298A (GABAA-ρ)): 6.27 µM; enhanced potency (α7^L131A-GlyR): 8 fold; EC50 [3, 9]: 2370 nM; EC50 [3, 10]: > 30000 nM; EC50 [3, 11]: 22 nM; EC50 [3, 12]: 3660 nM; EC50 [3, 13]: > 30000 nM
O=C(N[C@@H]1CN2CCC1CC2)c1ccc(C(F)(F)F)cn1 [compound 0295]	–	–	–	–	EC50 (α7-5HT3 [1]; [8]): > 100000 nM; EC50 (α7-GlyR [2]): > 100 µM
O=C(NC1CN2CCC1CC2)c1ccc(C(F)(F)F)nc1 (centres unmarked) [compound 0296]	–	–	–	–	EC50 (α7-5HT3 [1]; [8]): > 100000 nM
O=C(Nc1ccccc1)N[C@@H]1CN2CCC1CC2 [compound 0353]	–	–	–	–	EC50 (α7-5HT3 [1]; [8]): 650 nM; EC50 (α7-GlyR [2]): 0.27 µM
S=C(Nc1ccc(Cl)cc1)NC1CN2CCC1CC2 (centres unmarked) [compound 0354]	–	–	–	–	partial agonist activity (α7-5HT3 [1]; HEK cells, Table 3): 1.4 partial
CN1C2CCC1CC(NC(=S)c1c[nH]c3ccccc13)C2 (centres unmarked) [compound 0542]	–	–	–	–	EC50 (α7-5HT3 [1]; [8]): 3800 nM
O=C(N[C@@H]1CN2CCC1CC2)c1c[nH]c2ccccc12 [compound 0676]	–	–	–	–	EC50 (α7-5HT3 [1]; [8]): 30 nM
Cc1ccccc1-c1cnc2cc3c(cc2n1)C1CNCC3C1 (centres unmarked) [compound 780]	–	10.6 µM	> 100 µM	–	–
Cc1ccccc1-c1cnc2cc3c(cc2n1)C1CC3CN(C)C1 (centres unmarked) [compound 782]	> 30000 nM	> 100 µM	> 100 µM	–	–
Cc1nc2cc3c(cc2[nH]c1=O)C1CNCC3C1 (centres unmarked) [compound 783]	430 nM	–	> 100 µM	–	EC50 (α4β2 nAChR; […]): 43 µM
O=c1[nH]c2cc3c(cc2nc1-c1ccccc1)C1CNCC3C1 (centres unmarked) [compound 784]	6200 nM	> 30 µM	> 30 µM	–	–
c1c2c(cc3nc4c(nc13)CCCC4)C1CNCC2C1 [compound 785]	10200 nM	–	> 100 µM	–	–
c1cncc(-c2nc3cc4c(cc3[nH]2)C2CNCC4C2)c1 (centres unmarked) [compound 786, 2-(pyridin-3-yl)-1,5,6,7,8,9-hexahydro-5,9-methanoimidazo[4′,5′:4,5]benzo[1,2-d]azepine]	–	> 100 µM	> 100 µM	–	–
FC(F)(F)c1cnc2cc3c(cc2n1)C1CNCC3C1 (centres unmarked) [compound 788]	41000 nM	> 100 µM	> 100 µM	> 30 µM	–

SMILES	EC50 (5HT3-R; 5HT3-R, Table 10)	EC50 (α7-5HT3 [6])	EC50 (α7-GlyR [7])	EC50 (α4β2 nAChR; […], α4β2 nAChR, Table 10)	other results
COc1nc2cc3c(cc2nc1-c1ccccc1)C1CNCC3C1 (centres unmarked) [compound 789]	510 nM	> 100 µM	> 100 µM	> 30 µM	–
Cc1nc2cc3c(cc2n(C)c1=O)C1CNCC3C1 (centres unmarked) [compound 790]	4300 nM	> 100 µM	> 100 µM	> 30 µM	–
COc1nc2cc3c(cc2nc1C)C1CNCC3C1 (centres unmarked) [compound 791]	170 nM	–	> 30 µM	> 30 µM	–
Cn1c(=O)cnc2cc3c(cc21)C1CNCC3C1 (centres unmarked) [compound 792]	40500 nM	> 30 µM	–	–	EC50 (α7-GlyR [2]): > 30 µM
COc1cnc2cc3c(cc2n1)C1CNCC3C1 (centres unmarked) [compound 793]	–	–	–	–	EC50 (5HT3-R): 190 nM; EC50 (α7-GlyR [2]): 19 µM
Cc1nc2cc3c(cc2nc1N(C)C)C1CNCC3C1 (centres unmarked) [compound 794]	1700 nM	–	> 30 µM	> 30 µM	–
CCN(CC)c1nc2cc3c(cc2nc1C)C1CNCC3C1 (centres unmarked) [compound 795]	1100 nM	–	> 30 µM	> 30 µM	EC50 (5HT3-R; read-out: potency for 5HT3-R): > 1000 nM; EC50 (α4β2 nAChR; potency for α4β2 nAChR): > 10 µM
Cc1nc2cc3c(cc2nc1-n1ccnc1)C1CNCC3C1 (centres unmarked) [compound 798]	1100 nM	> 30 µM	> 30 µM	28 µM	–
c1ccn(-c2cnc3cc4c(cc3n2)C2CNCC4C2)c1 (centres unmarked) [compound 799]	11700 nM	–	> 100 µM	3.5 µM	–
c1cn(-c2cnc3cc4c(cc3n2)C2CNCC4C2)cn1 (centres unmarked) [compound 800]	3500 nM	–	> 30 µM	13.9 µM	–
c1ncn(-c2cnc3cc4c(cc3n2)C2CNCC4C2)n1 (centres unmarked) [compound 801]	4400 nM	–	> 30 µM	26 µM	–
Cc1nc2cc3c(cc2nc1-c1cccnc1)C1CNCC3C1 (centres unmarked) [compound 802]	–	–	> 30 µM	–	EC50 (5HT3-R; […], 5HT3-R, Table 10): 1500 nM; EC50 (5HT3-R; potency for 5HT3-R): > 1000 nM; EC50 (α4β2 nAChR; […]): > 30 µM; EC50 (α4β2 nAChR; potency for α4β2 nAChR): > 10 µM
Cc1nc2cc3c(cc2nc1-c1ccncc1)C1CNCC3C1 (centres unmarked) [compound 803]	–	–	> 30 µM	–	EC50 (5HT3-R; […], 5HT3-R, Table 10): 750 nM; EC50 (α4β2 nAChR; […]): 14 µM
c1cncc(-c2cnc3cc4c(cc3n2)C2CNCC4C2)c1 (centres unmarked) [compound 804]	–	–	> 30 µM	–	EC50 (5HT3-R; […], 5HT3-R, Table 10): 2000 nM; EC50 (α4β2 nAChR; […]): 4.8 µM
c1cc(-c2cnc3cc4c(cc3n2)C2CNCC4C2)ccn1 (centres unmarked) [compound 805]	–	–	> 30 µM	–	EC50 (5HT3-R; […], 5HT3-R, Table 10): 1000 nM; EC50 (α4β2 nAChR; […]): 4.9 µM
Cc1nc2cc3c(cc2nc1Cn1cncn1)C1CNCC3C1 (centres unmarked) [compound 807]	570 nM	> 30 µM	> 30 µM	> 30 µM	–
Cc1nc2cc3c(cc2nc1-n1cncn1)C1CNCC3C1 (centres unmarked) [compound 808]	12500 nM	> 30 µM	> 30 µM	> 30 µM	EC50 (5HT3-R; read-out: potency for 5HT3-R): > 1000 nM; EC50 (α4β2 nAChR; potency for α4β2 nAChR): > 10 µM
Cc1nc2cc3c(cc2nc1Cn1cccn1)C1CNCC3C1 (centres unmarked) [compound 812]	11000 nM	> 100 µM	> 100 µM	> 100 µM	–
CCOc1cnc2cc3c(cc2n1)C1CNCC3C1 (centres unmarked) [compound 815]	–	–	–	–	EC50 (α7-5HT3 [1]; read-out: EC50MP): > 100000 nM; In vivo potency ([5]; SNr silencing rotation assay in mice): 0.1 mpk; EC50 (α7-GlyR [2]): > 100 µM; α4β2 nAChR agonism (α4β2 nAChR): do not show evident α4β2 nAChR agonism; EC50 (α4β2 nAChR; read-out: EC50MP): > 30 µM
